Data from US6482610B1, “Method for producing agents for treating tumor diseases and for immunosuppression” (Forschungszentrum Karlsruhe GmbH, priority 1998, dated 2002).
Like-named read-outs stand apart in the source and are kept apart here.

Legend:
p18-Ink and p21-Cip1 = assay: Levels of other cdk inhibitors in 5 L cells; assay type: cell-based, rat
Procedure: After it had been found by introductory experiments that the effect of dioxin on the cell cycle required gene expression which was continuous and induced, experiments were carried out to investigate the Ah receptor-dependent, cell cycle-regulating genes by characterizing biochemical changes in the course of the cell cycle (Lees, E., Curr. Opin. Cell Biol. 7, 773 (1995); Morgan, D. O., Nature 374, 131 (1995). The levels of cyclins D and E, which are involved in the G1-S transition in the cell cycle, as well as their associated cyclin-dependent kinases (cdks 2 and 4), were not reduced by dioxin treatment (see FIG. 2A). The levels of cyclins D2 and D3 were even raised, presumably because the cells are frozen in a state which is per se associated with a high level of these cyclins. […] The expected accumulation of a slowly migrating form of cdk2, which is presumably not phosphorylated at Thr-160 (Polyak, loc. cit.), was found in the same precipitates (FIG. 2D). […] The rise in the level of the p27Kip1 protein was accompanied by a fourfold induction of Kip1 mRNA (FIG. 2E, lanes 1 and 2).

thymocytes = assay: Thymocyte proliferation and cell cycle distribution in foetal thymus organ culture; assay type: cell-based, mice; settings: for % in G2/S: 2 days of culture, mean ± S.D., 3 experiments
Text: (§1) An important target for dioxin toxicity is the thymus, which suffers an AhR-dependent atrophy (Poland, A. et al., Annu. Rev. Pharmacol. Toxicol. 22, 517 (1982); Fernandez-Salguero, P. et al., Science 268, 722 (1995)). Foetal thymus organ culture (FTOC) provides a useful model for studying dioxin activities (Lai, Z. W. et al., Mol. Pharmacol. 52, 30 (1997), and the literature references which are cited therein). After only 2 days of FTOC, a 3-fold induction of Kip1 protein was found in thymocytes which had been prepared from TCDD-treated cultures as compared with cultures which had only been exposed to the solvent (FIG. 4A). This was accompanied by a decrease in the proliferation of the thymocytes, as shown by a reduced incorporation of ^3H-thymidine into the thymocyte DNA (75±7%) and a drop, from 32±3% down to 24±1%, in the number of cells in the S and G2 phases of the cell cycle (a representative example from 3 similar experiments is shown in FIG. 4B). While the proliferation rate in all the early thymocyte subpopulations was reduced independently of the status of CD4 or CD8 expression (Table 1), the effect was more strongly pronounced in the predominantly immature, double negative subpopulation and in a small CD4low/+/CD8-subpopulation.
(§2) Foetal thymus glands from C57B16 mice were explanted after 14.5 days of pregnancy and cultured for 2 days in the presence of 1 nM TCDD or 0.1% DMSO solvent prior to preparing thymocytes. p27Kip1 protein (A) was determined by Western blot in 10^5 thymocytes. Uniform loading of the gel was ensured by probing the blots once again with an Erk1 antibody (one of three representative examples is shown). The cell cycle distribution of the total lymphocyte population (B) was determined by means of flow cytometry following DNA staining with H33258 bisbenzimide dye.
Thymocytes from foetal thymus glands were collected after 2 days of culture in the presence or absence of TCDD and analysed for their cell cycle distribution. The values are mean values±S.D. from 3 independent experiments.

5 L cells [1] = settings: non-electroporated cells (Weiss, loc. cit.); cited from earlier work
[2] = test system: cyclins D1, D2, D3 and E, cdks 2 and 4; assay: Western blot of G1-phase cyclins and cdks in 5 L cells; assay type: cell-based, rat; settings: 24-hour treatment, FIG. 2A
Procedure: (§3) After it had been found by introductory experiments that the effect of dioxin on the cell cycle required gene expression which was continuous and induced, experiments were carried out to investigate the Ah receptor-dependent, cell cycle-regulating genes by characterizing biochemical changes in the course of the cell cycle (Lees, E., Curr. Opin. Cell Biol. 7, 773 (1995); Morgan, D. O., Nature 374, 131 (1995). The levels of cyclins D and E, which are involved in the G1-S transition in the cell cycle, as well as their associated cyclin-dependent kinases (cdks 2 and 4), were not reduced by dioxin treatment (see FIG. 2A). […]
(§4) Biochemical properties of G1-phase cyclin/cdk complexes were analysed using 30-60%-confluent, asynchronous cell cultures which, apart from those in section E, had been subjected to a 24-hour treatment with TCDD or 0.1% of the DMSO solvent. The quantities of G1-phase cyclins D1, D2, D3 and E, and also cdks 2 and 4(A) were determined by Western blot in extracts which had been prepared by lysis using a mild detergent (Matsushime, H. et al. Mol. Cell Biol. 14, 2066 (1994)). Cyclin E-dependent histone H1 kinase activity (B) was measured in an immune complex kinase assay (Matsushime, loc. cit.) following precipitation with an anti-cyclin E antibody (lanes 1 and 2) or a corresponding anti-AP-2 antibody as the negative control (lanes 3 and 4). […]

Kip1 mRNA = Kip1 mRNA by Northern blot in 5 L cells; assay type: cell-based, rat
[3] = test system: p27Kip1 associated with cyclin E; assay: Immunocoprecipitation with anti-cyclin E antibody, Western blot of p27Kip1; assay type: cell-based, rat; settings: 5 L cells, immunocoprecipitation analysis, FIG. 2D
Procedure: as §3, §4

p27Kip1 [4] = assay: p27Kip1 protein level by Western blot in 5 L cells and BP8 derivatives; assay type: cell-based, rat
Procedure: After it had been found by introductory experiments that the effect of dioxin on the cell cycle required gene expression which was continuous and induced, experiments were carried out to investigate the Ah receptor-dependent, cell cycle-regulating genes by characterizing biochemical changes in the course of the cell cycle (Lees, E., Curr. Opin. Cell Biol. 7, 773 (1995); Morgan, D. O., Nature 374, 131 (1995). The levels of cyclins D and E, which are involved in the G1-S transition in the cell cycle, as well as their associated cyclin-dependent kinases (cdks 2 and 4), were not reduced by dioxin treatment (see FIG. 2A). The levels of cyclins D2 and D3 were even raised, presumably because the cells are frozen in a state which is per se associated with a high level of these cyclins. […] The expected accumulation of a slowly migrating form of cdk2, which is presumably not phosphorylated at Thr-160 (Polyak, loc. cit.), was found in the same precipitates (FIG. 2D). […]
as §4, with “4). The levels of p27Kip1 protein (C) were determined by Western blot in whole-cell extracts prepared from TCDD-treated cultures of AhR-expressing 5 L wild-type cells, their AhR-deficient BP8AhR-derivatives and BP8 cells which were expressing AhR ectopically (BP8AhR+) (Weiss, loc. cit.).” for “4).”

5 L cells [5] = assay: Cell cycle distribution by flow cytometry in transfected 5 L cells; assay type: cell-based, rat
Text: Genetic indications of a causal role for Kip1 induction in dioxin-induced cell cycle retardation were obtained by transiently expressing a Kip1 antisense RNA in order to inactivate Kip1. Coexpression of green fluorescent protein (GFP, Heim, A. B. et al., Nature 373, 663 (1997)) enabled flow cytometry to be used to detect efficiently transfected cells (FIG. 3A). […] When Kip1 antisense RNA was expressed together with GFP, the TCDD effect on cell cycle distribution was interrupted in the efficiently transfected subpopulation of cells (FIG. 3B, third row). In the non-transfected subpopulation from the same cell culture, TCDD retarded the progress of the cell cycle in the expected manner (FIG. 3B, last row). In this context, it is to be noted that the electroporation reduced sensitivity to dioxin such that the observed effects on the cell cycle were less pronounced than in non-transfected cells, for example 1.5-2-fold as compared with 3-4-fold in non-electroporated cells (Weiss, loc. cit.).
5 L cells were transiently cotransfected with expression vectors for a Kip1 antisence RNA and GFP (part B, lower panel) or with the empty expression vector and GFP (part B, upper panel). 32 h after the transfection, the cells were treated with 1 nM TCDD or 0.1% DMSO solvent, as the control, and harvested, for the analysis by flow cytometry 18 h later, using trypsin. (A) The GFP-expressing subpopulation of transfected cells (thick line) was identified by means of a high green fluorescence (GFP) as compared with untransfected cells (thin line). (B) Cell cycle profiles were determined by staining with H33258 and analysed individually for efficiently transfected (approx. 5%), green-fluorescing subpopulations (rows 1 and 3) and untransfected subpopulations (rows 2 and 4) in the presence of 1 nM TCDD (right-hand panels) or 0.1% DMSO solvent (left-hand panels).

p27Kip1 [6] = assay: p27Kip1 protein by Western blot in foetal thymus organ culture thymocytes; assay type: cell-based, mice; settings: 2 days of FTOC, 1 nM, compared with solvent cultures
Text: as §1, with “While the proliferation rate in all the early thymocyte subpopulations was reduced independently of the status of CD4 or CD8 expression (Table 1), the effect was more strongly pronounced in the predominantly immature, double negative subpopulation and in a small CD4low/+/CD8-subpopulation.” left out
as §2, with “Uniform loading of the gel was ensured by probing the blots once again with an Erk1 antibody (one of three representative examples is shown).” left out

[7] = test system: cyclin E-associated histone H1 kinase; assay: Cyclin E-dependent histone H1 kinase activity, immune complex kinase assay; assay type: cell-based, rat; settings: 5 L cells, 24-hour treatment, FIG. 2B
Procedure: as §3, §4

5 L cells [8] = assay: Cell cycle progress by Rb protein phosphorylation, Western blot, synchronised 5 L cells; assay type: cell-based, rat; settings: 1 nM, 2 h before analysis, 8 h after serum stimulation, FIG. 1
Procedure: 5 L cells were frozen in their growth by being fasted in serum-free medium for 24 h and synchronously released from the block in the cell cycle by the addition of serum. The progress in the cell cycle was monitored by Western blot analysis, by determining the accumulation of phosphorylated Rb protein (upper arrow) in relation to hypophosphorylated Rb protein (lower arrow) 8 h after stimulating with the serum. 2 h before the analysis, the cells were treated with 1 nM TCDD, the transcription inhibitor actinomycin D (5 μg/ml) or both these compounds. The culture conditions have been described previously (Weiss, C. et al. Exp. Cell Res. 226, 154 (1996)), and extracts were prepared by lysing the cells in denaturing SDS sample buffer.

## Clc1cc2c(cc1Cl)Oc1cc(Cl)c(Cl)cc1O2 [TCDD]
p18-Ink and p21-Cip1
  p18-Ink and p21-Cip1 levels: not noticeably altered
thymocytes; 2 days of FTOC, 1 nM
  incorporation of 3H-thymidine into the thymocyte DNA: 75±7%
thymocytes; CD4+/CD8+ thymocytes
  % in G2/S: 35 ± 10%
thymocytes; CD4+/CD8− thymocytes
  % in G2/S: 24 ± 4%
thymocytes; CD4−/CD8+ thymocytes
  % in G2/S: 32 ± 6%
thymocytes; CD4−/CD8− thymocytes
  % in G2/S: 18 ± 2%
thymocytes; total thymocyte population, 2 days of FTOC, 1 nM
  number of cells in the S and G2 phases of the cell cycle: 24±1%
5 L cells [1]
  observed effects on the cell cycle: 3-4 fold
[2]
  levels of cyclins D2 and D3: even raised
  levels of cyclins D and E and associated cyclin-dependent kinases (cdks 2 and 4): not reduced
Kip1 mRNA; 5 L cells, 4-hour exposure, FIG. 2E
  induction of Kip1 mRNA: fourfold
Kip1 mRNA; following interruption of transcription by actinomycin D
  breakdown of Kip1 mRNA: did not affect
[3]
  quantities of p27Kip1 associated with cyclin E: increased quantities
p27Kip1 [4]; 5 L wild-type cells, exposure from 4 to 72 hours, FIG. 2C
  level of p27Kip1 by Western blot: raised in every case
p27Kip1 [4]; AhR-poor subclone of 5 L cells (BP8-AhR−)
  upregulation of p27Kip1: not possible to observe dioxin-dependent upregulation
p27Kip1 [4]; BP8 subclone with ectopic expression of the AhR (BP8-AhR+)
  induction of p27Kip1: induction was restored
5 L cells [5]; GFP with empty expression vector, transfected and non-transfected cells, 1 nM, 18 h
  relative number of cells in S/G2: reduced
5 L cells [5]; efficiently transfected subpopulation expressing Kip1 antisense RNA with GFP, 1 nM
  TCDD effect on cell cycle distribution: interrupted
5 L cells [5]; electroporated cells
  observed effects on the cell cycle: 1.5-2 fold
5 L cells [5]; non-transfected subpopulation of the Kip1 antisense culture, 1 nM
  progress of the cell cycle: retarded
p27Kip1 [6]
  induction of Kip1 protein in thymocytes: 3 fold
[7]
  cyclin E-associated histone H1 kinase activity: substantially reduced
5 L cells [8]
  progress of the cell cycle (phosphorylated versus hypophosphorylated Rb protein): transcription-dependent retardation

## C[C@@H]1C[C@@H]([C@H](O)CC2CC(=O)NC(=O)C2)C(=O)[C@@H](C)C1 [cycloheximide]
Kip1 mRNA; 30-minute pretreatment, 20 μg/ml, then 4-hour TCDD
  effect on TCDD induction of Kip1 mRNA: had no effect
